Experiments:
total cellular protein = test: Total cellular protein synthesis (TCA-precipitable counts); type: cell-based; details: 10 μg/ml
Method: Measurement of HMGal and HMG-CoA Reductase Synthesis Rates Cells plated into 60×15 mm dishes were grown in 5% LPS MEM with 0.25 mg/ml active geneticin for 24 hours. These cells were washed with PBS and grown for 24 hours in 5% LPS MEM supplemented with 0.25 mg/ml active geneticin, 10 μM compactin and 0.1 mM mevalonate. After 24 hours, the medium was removed, the cells were washed with PBS and the medium was replaced with methionine-free MEM supplemented with 5% LPS, 250 μg/ml of active geneticin, 10 μM compactin, and 0.1 mM mevalonate. In addition, 20 mM mevalonate or 10 μg/ml farnesyl acetate was included in those plates previously treated with these compounds. […] Cells were washed, lysed and the HMGal and HMG-CoA reductase proteins were immunoprecipitated, subjected to SDS-PAGE and quantified. […]
Farnesyl compounds reduce translation and stimulate degradation of HMG-CoA reductase and HMGal A reduction in HMGal specific activity triggered by the farnesyl compounds could have been the result of a decrease in HMGal synthesis, an increase in HMGal degradation, or a combination of changes in both the synthesis and degradation rates. In order to test whether the farnesyl compounds impact synthesis, the rates of HMGal, HMG-CoA reductase, and total cellular protein synthesis were measured by [^35 S]methionine incorporation in the presence and absence of 10 μg/ml farnesyl acetate.

HMG-CoA reductase = HMG-CoA reductase degradation rate (pulse-chase); type: cell-based; details: 10 μg/ml during chase; untreated 9.3 hours
Method: Measurement of HMGal and HMG-CoA Reductase Degradation Rates Cells grown in 60×15 mm dishes were washed once with ice-cold PBS and starved for 1 hour in 1 ml of methionine-free MEM supplemented with 5% LPS, 250 μg/ml of active geneticin, 10 μM compactin, and 0.1 mM mevalonate. These cells were radio-labeled for 2 hours in 300 μl of the methionine-free starvation medium containing 100 μCi of Tran^35 S-label (>1,000 Ci/mmol). Cells were incubated in an MEM-based chase medium containing 2 mM methionine, 5% LPS, 250 μg/ml of active geneticin, 10 μM compactin, and 0.1 mM mevalonate. During the chase period, some plates also had either 20 mM mevalonate, 10 μg/ml farnesyl acetate or 10 μg/ml ethyl farnesyl ether added to them as indicated in the figure legend. Following the chase, cells were washed, lysed and the HMGal and HMG-CoA reductase proteins were immunoprecipitated, subjected to SDS-PAGE and quantified.
In order to test whether the farnesyl compounds impact degradation, the rates of degradation for HMGal, HMG-CoA reductase, and total cellular protein were measured in the presence and absence of 10 μg/ml farnesyl acetate and ethyl farnesyl ether.

cholesterol biosynthesis = test: [3H]acetate incorporation into cholesterol in CHO-HMGal cells; type: cell-based
Method: Thin Layer Chromatography--TLC was performed using Analtech 250 μm silica gel G plates with a hexanes/diethyl ether (1:1) solvent system. Lipid standards were visualized by iodine staining. Bands were scraped from the plate and their radioactivity was measured.
Quantification of Radioactivity--Samples were suspended in 4 ml of scintillation fluid (Cytoscint from ICN). The radioactivity of the samples was measured using a Beckman LS-7500 scintillation counter.
Subsequently, the cells were labeled for 1,2, and 4 hours with [^3 H]acetate and harvested. The non-saponifiable lipid fraction from each cell type was extracted and separated by TLC. The radioactivity that co-migrated with cholesterol was measured and normalized for the amount of cellular protein.
Farnesyl acetate and ethyl farnesyl ether were only present during the labeling period so that any reduction in incorporation into cholesterol would be the result of inhibition and not a down regulation in HMG-CoA reductase.

squalene synthase = test: Squalene synthase assay (cell lysate); type: biochemical; details: 4 nM to 0.2 mM
Method: Squalene Synthase Assay--The cell lysate was prepared immediately prior to running the assay. Cells were washed three times with PBS, once with a 0.1M potassium phosphate buffer (pH 7.4) containing 5 mM MgCl2 and 5 mM CHAPS, and once with a 0.01M potassium phosphate buffer (pH 7.4) containing 0.5 mM MgCl2 and 0.5 mM CHAPS. Cells were scraped with a rubber policeman in approximately 0.5 ml of the final wash buffer and dounce homogenized with 20 strokes, while on ice. An aliquot of cell lysate was examined with a light microscope to ensure that essentially all cells in the sample were lysed. An additional aliquot of cell lysate was saved for protein determination. […] The squalene was isolated by TLC and the radioactivity of the squalene bands was measured as previously described. […]
Since both farnesyl compounds have a structural similarity to farnesyl pyrophosphate, the substrate for squalene synthase, and some of the farnesyl compounds that have been tested function as a competitive inhibitor of squalene synthase, the effects of farnesyl acetate on in vitro squalene synthase activity was measured. As a positive control, squalene synthase activity was also measured in tile presence of zaragozic acid A, a potent competitive inhibitor of the enzyme. […]

## CC(=O)OCC=C(C)CCC=C(C)CCC=C(C)C [farnesyl acetate]
Total cellular protein
  effect on total protein synthesis (TCA-precipitable counts): Neither farnesyl acetate nor mevalonate have a significant effect
HMG-CoA reductase
  half-life of HMG-CoA reductase: 3.6 h
  reduction of the half-life of HMG-CoA reductase: 60%
Cholesterol biosynthesis; 24 hours pretreatment, then labeled 1, 2 and 4 hours, CHO-HMGal cells
  reduction in [3H]acetate incorporation into cholesterol: 80%
Cholesterol biosynthesis; compound present only during the labeling period, no pretreatment
  reduction in [3H]acetate incorporation into cholesterol: 89%
Squalene synthase
  effect on in vitro squalene synthase activity: negligible effect
